In US20030032003A1, “IN VIVO SELECTION” (priority 2000, published 2003):

Tested on: Hprt −/− (Hprt deficient) mice
Assay: Acute toxicity of 6TG, approximate lethal dose
Conditions: for body weight, percentage of the body weight before the experiment / survival: Hprt −/−, 14 days

Q: Which results are given for `Nc1nc(S)c2[nH]cnc2n1` [6TG, 2-amino-6-merkaptopurine]?
A: approximate lethal dose (Hprt −/− animals, single i.p.): 1148 mg/kg; increase of approximate lethal dose over the wildtype strain (Hprt −/− vs wildtype): 23 fold; body weight, percentage of the body weight before the experiment (25 mg/kg single i.p.): 101%; survival (25 mg/kg single i.p.): surv (surv, animals survived the 14 days period); body weight, percentage of the body weight before the experiment (50 mg/kg single i.p.): 102%; survival (50 mg/kg single i.p.): surv (surv, animals survived the 14 days period); body weight, percentage of the body weight before the experiment (100 mg/kg single i.p.): 103%; survival (100 mg/kg single i.p.): surv (surv, animals survived the 14 days period); body weight, percentage of the body weight before the experiment (150 mg/kg single i.p.): 101%; survival (150 mg/kg single i.p.): surv (surv, animals survived the 14 days period); body weight, percentage of the body weight before the experiment (225 mg/kg single i.p.): 100%; survival (225 mg/kg single i.p.): surv (surv, animals survived the 14 days period); body weight, percentage of the body weight before the experiment (338 mg/kg single i.p.): 101%; survival (338 mg/kg single i.p.): surv (surv, animals survived the 14 days period); body weight, percentage of the body weight before the experiment (508 mg/kg single i.p.): 99%; survival (508 mg/kg single i.p.): surv (surv, animals survived the 14 days period); body weight, percentage of the body weight before the experiment (720 mg/kg single i.p.): 101%; survival (720 mg/kg single i.p.): surv (surv, animals survived the 14 days period); body weight, percentage of the body weight before the experiment (1148 mg/kg single i.p.): 69%; survival (1148 mg/kg single i.p.): 8.5 days; body weight, percentage of the body weight before the experiment (1714 mg/kg single i.p.): 93%; survival (1714 mg/kg single i.p.): 4 days; body weight, percentage of the body weight before the experiment (2571 mg/kg single i.p.): 95%; survival (2571 mg/kg single i.p.): 4 days
